Assay results from PMC12669039 (Nature Microbiology, 2025).

Biological target: T1, HSV-1 helicase–primase (HP) complex (UL5/UL52/UL8) (Human alphaherpesvirus 1 strain 17, UniProt P10189+P10236)
T1 sequence (P10189 1-882): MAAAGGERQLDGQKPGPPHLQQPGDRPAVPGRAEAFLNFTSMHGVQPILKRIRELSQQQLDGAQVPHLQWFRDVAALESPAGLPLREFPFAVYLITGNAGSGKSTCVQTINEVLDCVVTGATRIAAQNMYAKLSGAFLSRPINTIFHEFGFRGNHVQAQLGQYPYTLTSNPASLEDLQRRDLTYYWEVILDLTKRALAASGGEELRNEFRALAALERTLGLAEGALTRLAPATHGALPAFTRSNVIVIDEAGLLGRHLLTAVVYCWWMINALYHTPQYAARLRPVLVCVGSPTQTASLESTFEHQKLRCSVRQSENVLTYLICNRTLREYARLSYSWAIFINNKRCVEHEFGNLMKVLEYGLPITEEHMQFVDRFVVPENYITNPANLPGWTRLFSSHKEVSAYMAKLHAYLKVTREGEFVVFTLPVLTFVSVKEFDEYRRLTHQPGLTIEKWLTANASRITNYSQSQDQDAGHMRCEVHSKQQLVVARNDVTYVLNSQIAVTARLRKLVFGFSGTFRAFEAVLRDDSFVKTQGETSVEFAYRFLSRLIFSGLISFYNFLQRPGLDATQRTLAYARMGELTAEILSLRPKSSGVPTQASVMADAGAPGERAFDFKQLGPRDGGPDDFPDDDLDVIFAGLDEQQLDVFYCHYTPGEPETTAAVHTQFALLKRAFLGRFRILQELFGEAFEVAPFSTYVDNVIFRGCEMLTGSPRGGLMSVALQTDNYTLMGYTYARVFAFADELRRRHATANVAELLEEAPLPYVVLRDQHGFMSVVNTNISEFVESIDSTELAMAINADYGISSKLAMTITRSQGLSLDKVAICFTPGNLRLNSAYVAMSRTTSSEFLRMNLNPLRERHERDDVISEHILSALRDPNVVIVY
T1 sequence (P10236 1-1058): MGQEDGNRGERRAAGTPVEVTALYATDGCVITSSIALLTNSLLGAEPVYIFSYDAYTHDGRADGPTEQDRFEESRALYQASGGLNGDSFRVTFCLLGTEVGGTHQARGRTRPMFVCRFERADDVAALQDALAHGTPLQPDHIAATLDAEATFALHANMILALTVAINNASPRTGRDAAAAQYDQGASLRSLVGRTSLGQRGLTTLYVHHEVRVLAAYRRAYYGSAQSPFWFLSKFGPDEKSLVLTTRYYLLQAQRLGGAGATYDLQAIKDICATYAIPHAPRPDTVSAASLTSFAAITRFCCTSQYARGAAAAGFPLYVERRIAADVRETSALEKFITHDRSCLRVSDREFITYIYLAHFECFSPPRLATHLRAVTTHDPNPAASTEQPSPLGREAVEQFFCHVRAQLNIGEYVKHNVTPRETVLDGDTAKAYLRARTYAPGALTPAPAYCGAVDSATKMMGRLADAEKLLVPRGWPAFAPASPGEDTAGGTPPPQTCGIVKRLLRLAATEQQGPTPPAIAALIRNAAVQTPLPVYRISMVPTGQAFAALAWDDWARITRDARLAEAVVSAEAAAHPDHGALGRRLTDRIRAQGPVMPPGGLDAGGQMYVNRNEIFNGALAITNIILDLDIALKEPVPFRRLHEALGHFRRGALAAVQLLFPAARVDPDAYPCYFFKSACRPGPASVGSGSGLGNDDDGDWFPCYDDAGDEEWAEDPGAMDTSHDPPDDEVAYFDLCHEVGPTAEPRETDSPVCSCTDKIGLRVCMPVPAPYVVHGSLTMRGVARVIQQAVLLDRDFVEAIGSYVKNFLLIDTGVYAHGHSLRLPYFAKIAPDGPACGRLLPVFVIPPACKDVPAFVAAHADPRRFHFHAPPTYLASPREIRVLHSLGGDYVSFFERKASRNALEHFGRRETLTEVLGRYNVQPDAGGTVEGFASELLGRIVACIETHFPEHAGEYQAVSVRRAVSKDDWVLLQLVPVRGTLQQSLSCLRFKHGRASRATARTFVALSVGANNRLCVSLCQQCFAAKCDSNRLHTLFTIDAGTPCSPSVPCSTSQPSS
T1 sequence (P10192 1-750 partner): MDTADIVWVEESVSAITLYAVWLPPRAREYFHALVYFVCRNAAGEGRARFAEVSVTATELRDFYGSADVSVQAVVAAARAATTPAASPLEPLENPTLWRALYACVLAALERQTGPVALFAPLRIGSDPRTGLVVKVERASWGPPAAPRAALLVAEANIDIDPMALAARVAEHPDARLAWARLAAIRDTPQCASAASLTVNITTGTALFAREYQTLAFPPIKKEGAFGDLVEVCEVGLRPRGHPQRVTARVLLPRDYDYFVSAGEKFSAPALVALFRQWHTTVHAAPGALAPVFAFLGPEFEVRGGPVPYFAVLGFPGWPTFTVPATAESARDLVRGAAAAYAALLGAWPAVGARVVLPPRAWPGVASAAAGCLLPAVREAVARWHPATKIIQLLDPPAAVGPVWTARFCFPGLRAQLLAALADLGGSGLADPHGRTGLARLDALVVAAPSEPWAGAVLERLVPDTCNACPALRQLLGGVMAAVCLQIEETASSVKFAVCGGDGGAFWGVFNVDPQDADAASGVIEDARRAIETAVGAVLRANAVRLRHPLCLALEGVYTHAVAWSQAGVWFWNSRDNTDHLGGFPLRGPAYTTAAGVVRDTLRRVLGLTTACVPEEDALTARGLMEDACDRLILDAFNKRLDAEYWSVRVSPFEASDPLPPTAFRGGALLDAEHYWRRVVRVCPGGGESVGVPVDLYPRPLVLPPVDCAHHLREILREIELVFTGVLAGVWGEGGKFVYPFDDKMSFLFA
Experiment: fluorescent forked-DNA unwinding
Format: biochemical

In the case of Cc1nc(N(C)C(=O)Cc2ccc(-c3ccccn3)cc2)sc1S(N)(=O)=O [PTV, pritelivir], the IC50 is reported as 11.1 nM.
In the case of Cc1cccc(C)c1N(CC(=O)Nc1ccc(-c2ncon2)cc1)C(=O)C1CCS(=O)(=O)CC1 [AMNV, amenamevir], the IC50 is reported as 3.5 nM.
